In patent US20110072541A1, “MARKER FREE TRANSGENIC PLANTS ENGINEERING THE CHLOROPLAST GENOME WITHOUT THE USE OF ANTIBIOTIC SELECTION” (priority 2000, published 2011):
“Also recorded” adds a separate entry of the source. Structures can show the parent of a compound that is named as a salt.

Assays:
[1] = test system: tobacco seeds; assay: Seed germination on medium containing the selection agent; format: in vivo, Nicotiana tabacum
From the text: Lack of pleiotropic effects. […] They grew normally, flowered and set seeds. […] […] This may be due to the presence of an active endogenous BADH or similar enzymatic activity in non-green plastids during germination.

[2] = test system: resistant tobacco clones; assay: PCR screening of resistant clones for chloroplast integration; parameters: species or system Nicotiana tabacum
From the text: Integration of a foreign gene into the chloroplast genome was confirmed by PCR screening of chloroplast transformants (FIG. 4). Primers were designed to eliminate mutants, nuclear integration and to determine whether the integration of foreign genes had occurred in the chloroplast genome at the directed site by homologous recombination. The strategy to distinguish between nuclear and chloroplast transgenic plants was to land one primer (3P) on the native chloroplast genome adjacent to the point of integration and the second primer (3M) on the aadA gene (FIG. 1). This primer set generated 1.6 kb PCR product in chloroplast transformants (FIG. 4). Because this product cannot be obtained in nuclear transgenic plants, the possibility of nuclear integration can be eliminated. […] The rest of the resistant shoots may be either escapes or nuclear transformants. […] In contrast, nearly 60% of the spectinomycin resistant clones were mutants. Other labs have recently reported as high as 90% mutants among spectinomycin resistant clones (Eibl et al. 1999; Sidorov et al. 1999).

[3] = test system: Tobacco (Nicotiana tabacum var. Petit Havana) leaf discs; assay: Selection of bombarded tobacco leaf discs on RMOP selection medium (chloroplast transformation with pLD-BADH); format: cell-based; conditions: for time until resistant clones formed green shoots: after initiation of selection; for leaf discs responded / resistant shoots per responding leaf disk: bombarded leaf discs under selection; for average resistant shoots per plate: spectinomycin after 45 days; for resistant shoots regenerated overall: ten bombardments (spectinomycin), six bombardments (betaine aldehyde)
From the text: Expression cassettes of the chloroplast integration vector contain the chimeric aadA gene and the BADH gene driven by the constitutive 16S rRNA promoter and regulated by the 3′ untranslated region of the plastid psbA gene. The chimeric aadA gene encoding aminoglycoside 3′ adenyltransferase confers spectinomycin resistance in chloroplasts enabling selection of the transformants on spectinomycin dihydrochloride. On the other hand, BADH converts the toxic betaine aldehyde in cells to glycine betaine. When present, this pathway is compartmentalized within chloroplasts (Nuccio, et al. 1999). To facilitate translation of the dicistronic mRNA, independent Shine-Dalgarno (SD) sequences were provided to the aadA and BADH genes upstream of the initiation codons. In order to accurately compare transformation efficiency of both selectable markers under identical bombardment and transformation conditions, aadA and BADH genes were inserted into the same vector, at the same site. Bombarded leaves were treated in identical manner except the addition of selection reagent.
Tobacco (Nicotiana tabacum var. Petit Havana) was grown aseptically by germination of seeds in MSO medium. This medium contains MS salts (4.3 g/liter), B5 vitamin mixture (myoinositol, 100 mg/liter; thiamine-HCl, 10 mg/liter; nicotinic acid, 1 mg/liter; pyridoxine-HCl, 1 mg/liter), sucrose (30 g/liter) and phytagar (6 g/liter) at pH 5.8. Fully expanded, dark green leaves of about two month old plants were used for bombardment.
(§1) Leaves were placed abaxial side up on Whatman No. 1 filter papers laying on the RMOP medium (Daniell 1993) in standard petri plates (100×15 mm) for bombardment. Microprojectiles were coated with plasmid DNA (pLD-BADH) and bombardments were carried out with the biolistic device PDS 1000/He (Bio-Rad) as described by Daniell (1997). Following bombardment, petri plates were sealed with parafilm and incubated at 24° C. under 16 hour photoperiod. Two days after bombardment, leaves were chopped into small pieces of ˜5 mm^2 in size and placed on the selection medium (RMOP containing 500 μg/ml of spectinomycin dihydrochloride or 5-10 mM betaine aldehyde) with abaxial side touching the medium in deep (100×25 mm) petri plates. The regenerated resistant shoots were chopped into small pieces (˜2 mm^2) and subcloned into fresh deep petri plates containing the same selection medium. Resistant shoots from the second culture cycle were transferred to the rooting medium (MSO medium supplemented with IBA, 1 mg/liter containing appropriate selectable marker). Rooted plants were transferred to soil and grown at 26° C. under 16 hour photoperiod.
(§2) The entire process of regeneration, starting from bombardment until transfer to soil, takes about 3-6 months for spectinomycin selection and 2-3 months for betaine aldehyde selection. FIG. 3 and Table 1 show differences between the two selection processes. […] Leaf disks in FIG. 3 under betaine aldehyde selection appear partially green because they were photographed 12 days after the initiation of the selection process whereas the disc photographed on spectinomycin were 45 days after initiation of the selection process. In spite of the short period of selection one leaf disk was almost bleached (FIG. 3D) and all of them were killed after 30 days. Under 10 mM betaine aldehyde selection, control untransformed samples were killed (turned black, 3G-1) whereas transgenic leaves produced new shoots (FIG. 3G, 2-4).
When the leaf discs were selected for spectinomycin resistance, only 15% of the discs responded and an average of one resistant shoot per plate was observed after 45 days. From each callus, all resistant shoots are considered to represent an individual clone. Under betaine aldehyde selection 80% of the discs responded and an average of 25 resistant shoots per plate was observed. […]

[4] = test system: untransformed N. tabacum Petit Havana leaf discs; assay: Toxicity of the selection agent to untransformed control leaf discs; format: cell-based, Nicotiana tabacum; conditions: for effect on leaf discs under selection: RMOP selection medium
From the text: A. N. tabacum Petit Havana control in RMOP medium containing spectinomycin after 45 days. B. Bombarded leaf discs selected on spectinomycin in RMOP medium after 45 days. C. Spectinomycin resistant clones cultured again ([…]) to obtain homoplasmy. D. Petit Havana control in RMOP medium containing betaine aldehyde after 12 days of culture. E. Bombarded leaf discs selected on betaine aldehyde in RMOP medium after 12 days of culture; arrow indicates unbombarded leaf disc as control. Note that 23 shoots are formed on a disc selected on betain aldehyde against 1-2 shoots per disc on spectinomycin. F. Betaine aldehyde resistant clones cultured again (second round) to obtain homoplasmy. G. Selection on 10 mM betaine aldehyde of untransformed (1) and transgenic (2-4) leaf discs.
as §1, §2

[5] = test system: resistant tobacco clones; conditions: Eibl et al. 1999; Sidorov et al. 1999; cited from earlier work

SMILES: CN[C@@H]1[C@H](O)[C@H](NC)[C@H]2O[C@@]3(O)C(=O)C[C@@H](C)O[C@H]3O[C@@H]2[C@H]1O [Spectinomycin, spectinomycin dihydrochloride]
- germination of seeds from chloroplast transgenic plants ([1]; MS medium, 500 μg/ml spectinomycin): germinated and grew normally
- mutants among resistant clones ([2]; applicant's clones): ~60%
- entire process of regeneration, bombardment until transfer to soil [3]: 3-6 months
- time until resistant clones formed green shoots [3]: about 45 days
- leaf discs responded [3]: 15%
- average resistant shoots per plate [3]: one
- resistant shoots regenerated overall [3]: 10
- effect on leaf discs under selection [4]: leaf discs continued to grow but pigments were bleached
- mutants among resistant clones, other labs [5]: ≤ 90%

SMILES: C[N+](C)(C)CC=O [betaine aldehyde]
- germination of untransformed seeds ([1]; betaine aldehyde 10-15 mM): germinated
- resistant clones with foreign genes integrated into the chloroplast genome (PCR) ([2]; after the first culture cycle): 11 out of 15
- entire process of regeneration, bombardment until transfer to soil [3]: 2-3 months
- time until resistant clones formed green shoots [3]: ≤ 12 days
- efficiency of transformation relative to spectinomycin selection ([3]; betaine aldehyde vs spectinomycin selection): 25 fold
- leaf discs responded [3]: 80%
- resistant shoots per responding leaf disk [3]: ≤ 23
- resistant shoots per responding leaf disk ([3]; listed as betain aldehyde): 23
- average resistant shoots per plate [3]: 25
- resistant shoots regenerated overall [3]: more than 150
- effect on untransformed leaf discs ([4]; 10 mM betaine aldehyde): death of untransformed leaf disc; also recorded: killed
- time after which all control leaf disks were killed ([4]; Petit Havana control in RMOP with betaine aldehyde): 30 days
- effect on leaf discs under selection [4]: growth of the leaf discs was completely inhibited and photosynthetic pigments were degraded
